The source made the active and inactive calls. How the calls were made is not given here.

The target in this assay is Alkaline phosphatase, placental type (Homo sapiens) (UniProt P05187). The assay is described as follows: PLAP enzyme inhibitors, biochemical, luminescence, HTS (AID 690). As to conditions: purified PLAP, luminescent substrate.
Sequence of Alkaline phosphatase, placental type (Homo sapiens) (P05187 whole entry, looked up): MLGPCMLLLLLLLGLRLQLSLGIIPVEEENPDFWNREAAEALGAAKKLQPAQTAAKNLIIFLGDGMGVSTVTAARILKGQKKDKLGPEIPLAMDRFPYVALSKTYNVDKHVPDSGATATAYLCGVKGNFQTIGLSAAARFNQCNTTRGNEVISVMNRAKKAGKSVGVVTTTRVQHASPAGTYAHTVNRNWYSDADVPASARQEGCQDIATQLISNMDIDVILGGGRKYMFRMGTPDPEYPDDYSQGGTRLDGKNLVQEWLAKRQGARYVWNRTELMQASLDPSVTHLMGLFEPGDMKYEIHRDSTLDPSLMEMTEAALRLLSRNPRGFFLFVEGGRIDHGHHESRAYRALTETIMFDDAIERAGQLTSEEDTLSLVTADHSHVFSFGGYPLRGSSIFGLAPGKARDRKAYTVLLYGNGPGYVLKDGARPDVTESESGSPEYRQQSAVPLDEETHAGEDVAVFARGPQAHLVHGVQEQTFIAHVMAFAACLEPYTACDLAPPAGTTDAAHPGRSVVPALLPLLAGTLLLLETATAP

Consider `CC(C)C1N=C2c3ccccc3N=C(SCC(=O)c3ccc(O)c(O)c3)N2C1=O` (stereo not given), for which the IC50 is 3.11 µM.

Turning to `CCOC(=O)c1c(-n2c(C)cc(C=C3C(=O)NC(=S)NC3=O)c2C)sc2c1CCCC2`, the IC50 is 63.9 µM.

Consider `O=C1Nc2ccc(Br)cc2/C1=N/N=C/C1=C(N2CCOCC2)C(=C\c2ccccc2)/CC1`, for which the IC50 was 45.6 µM.

As to `O=C1C2CC=CCC2C(=O)N1c1n[nH]c(-c2ccccc2)n1` (stereo not given), the IC50 is 8.77 µM.

On to `C/C(=N\Nc1ccc([N+](=O)[O-])cc1)c1cccc(N)c1`, for which the IC50 is 51.9 µM.

As to `COc1cccc(-c2nnc3n2N=C(c2cccc(Br)c2)CS3)c1`, the IC50 was 76.1 µM.

Take `CC1=NN(Cc2ccccc2)C(=O)/C1=C\c1ccc(N(C)C)cc1`: the IC50 is 18.3 µM.

Regarding `CCCc1[nH]nc2c1C(c1ccc(O)c(OC)c1)C(C#N)=C(N)O2` (stereo not given), the IC50 is 11.8 µM.

In the case of `COC(=O)c1cn[nH]c1NC(=S)Nc1ccccc1C`, the IC50 was 19.3 µM.

Take `Cc1[nH]c2ccccc2c1/C=C/c1cc[n+](C)cc1`: the IC50 is 29.1 µM.

As for `CCCCOc1ccc(CSC(=N)N)cc1[N+](=O)[O-]`, the IC50 is 78.3 µM.

`CC1(C)Cc2c(sc3nc4n(c(=N)c23)CCCCC4)CO1`: the IC50 was 1.88 µM.

With `CCN1/C(=C\C=C\C2=[N+](CC)c3ccccc3C2(C)C)C(C)(C)c2ccccc21`, the 50% inhibitory concentration (IC50) was 22 µM.

`CCOc1cc(/C=C(/C#N)C(=O)Nc2ccc(O)cc2)cc(Br)c1O`: the IC50 is 48.5 µM.

In the case of `Cc1cc2nc(C3CCN(Cc4nnnn4Cc4cccs4)CC3)[nH]c2cc1C`, the IC50 is 7.67 µM.

As to `CCc1ccc(NSc2ccccc2[N+](=O)[O-])cc1`, the IC50 is 29.2 µM.

Regarding `CN1C(=O)/C(=C\c2ccc(N3CCCCC3)o2)C(=O)NC1=S`, the IC50 is 10.1 µM.

In the case of `COc1cc(/C=C(/C(=O)c2cccs2)c2nc3ccccc3[nH]2)cc(OC)c1O`, the concentration for half-maximal inhibition (IC50) is 20.4 µM.

For `c1ccc(CSCCc2ccncc2)cc1`, the IC50 is 2.01 µM.

`c1ccc(Nc2cccc(Nc3ccccc3)n2)cc1`: the IC50 is 65.4 µM.

As to `CCN1/C(=C/c2ccc3ccccc3[n+]2CC)C=Cc2ccccc21`, the IC50 was 10.6 µM.

Turning to `c1ccc(-n2ncc3c2ncn2cnnc32)cc1`, the IC50 was 2.11 µM.

Take `CN1c2ccccc2C(C)(C)[C@]12C=Cc1cc(O)ccc1O2`: the IC50 is 43.9 µM.

Turning to `O=C(NCc1cccnc1)NC1(C(F)(F)F)Oc2ccc(Cl)cc2O1` (stereo not given), the IC50 was 12.4 µM.

On to `O=P(O)(O)c1ccccc1OCc1ccccc1`, for which the IC50 was 8.43 µM.

For `CC(=O)Oc1cc2oc(=O)cc(C)c2cc1OC(C)=O`, the IC50 is 6.24 µM.

Take `CNc1nnc(-c2cc3ccccc3oc2=O)s1`: the IC50 was 2.85 µM.

In the case of `Cc1ccc(C)c(NC(=S)NC(NC(=O)Cc2cccc3ccccc23)C(Cl)(Cl)Cl)c1` (stereo not given), the IC50 was 27.5 µM.

As to `N#C/C(=C\c1ccc(O)c(O)c1)S(=O)(=O)c1ccccc1`, the IC50 is 4.1 µM.

Turning to `CC(C)N=c1scc(-c2ccco2)n1/N=C/c1ccc(O)c(O)c1`, the IC50 is 4.97 µM.

Consider `CCN1/C(=C/c2ccc3cccc(C)c3[n+]2CC)Sc2ccccc21`, for which the IC50 was 11.9 µM.

With `Clc1ccc(CSc2nnnn2-c2ccc3c(c2)OCO3)c(Cl)c1`, the IC50 is 73.3 µM.

Take `Clc1ccc(/C=C/c2nc3ccccc3[nH]2)c(Cl)c1`: the IC50 is 6.37 µM.

`O=C(CCCn1c(SCC(=O)c2ccc(O)c(O)c2)nc2ccccc2c1=O)NCC1CCCO1` (stereo not given): the IC50 was 3.45 µM.

Consider `CCCCOC(=O)C(C)Nc1n[nH]c(=S)[nH]c1=O` (stereo not given), for which the IC50 is 43.3 µM.

In the case of `O=C(C[n+]1ccc(C(=O)N/N=C/c2ccc(Br)cc2)cc1)c1ccccc1`, the IC50 is 34.3 µM.

For `CN(C)CCNc1ncnc2ccccc12`, the IC50 is 71.3 µM.

With `COc1cc(/C=C2\N=C3CCCCCN3C2=O)ccc1O`, the IC50 is 25.6 µM.

As to `O=C1C2C3C=CC(C3)C2C(=O)N1c1n[nH]c(-c2cccnc2)n1` (stereo not given), the IC50 is 29.8 µM.

Turning to `CCn1c(CSc2nc3ccccc3s2)nnc1SCC(=O)c1ccc(O)c(O)c1`, the concentration for half-maximal inhibition (IC50) was 1.52 µM.

Turning to `COc1ccc(-c2nnc(-c3ccc(Br)o3)o2)cc1OC`, the IC50 was 10.3 µM.

Consider `COCCNC(=O)NC1(C(F)(F)F)Oc2ccc(Cl)cc2O1` (stereo not given), for which the IC50 is 12.3 µM.

On to `CN1C(=O)/C(=C2/C=Cc3ccccc3N2CCCS(=O)(=O)O)SC1=S`, for which the IC50 was 15.2 µM.

`O=C1NC(=S)N/C1=C/c1cc([N+](=O)[O-])ccc1O`: the IC50 entry is “inactive”.

`COc1cccc(OCCNc2cc(Cl)ccc2[N+](=O)[O-])c1`: the IC50 was 60.7 µM.

On to `CCn1c(SCC(=O)c2ccc(O)c(O)c2)nnc1-c1ccccc1OC`, for which the half-inhibitory concentration (IC50) is 4.36 µM.

On to `O=C(CSc1n[nH]c(-c2ccccc2)n1)c1ccc(O)c(O)c1`, for which the IC50 was 11.1 µM.

In the case of `C=CCn1c(SCC(=O)c2ccc(O)c(O)c2)nnc1-c1ccccc1OC`, the IC50 was 1.55 µM.

`COC(=O)c1ccc2c(c1)C(C)(C)C(/C=C/c1ccccc1O)=[N+]2C`: the IC50 is 15 µM.

Regarding `CSc1cccc(NC(=O)/C=C/c2ccccc2)c1`, the IC50 was 75.8 µM.

With `N#Cc1c(SCC(=O)OCc2ccccc2)nsc1SCC(=O)OCc1ccccc1`, the IC50 is 62.9 µM.

On to `O=C(NC1(C(F)(F)F)Oc2ccc(Cl)cc2O1)N1CCC2(CC1)OCCO2` (stereo not given), for which the IC50 is 4.87 µM.

Regarding `Cc1cc([N+](=O)[O-])ccc1NCc1ccc2ccccc2c1`, the IC50 was 75 µM.

With `COCc1[nH]nc2c1C(c1cc(OC)c(O)c(OC)c1)C(C#N)=C(N)O2` (stereo not given), the IC50 was 23 µM.

Take `CC1CCCC/C1=N/Nc1ccc([N+](=O)[O-])cc1[N+](=O)[O-]` (stereo not given): the IC50 was 7.24 µM.

Consider `CN(C)c1ccc(/C=C/C(=O)c2cccc(Br)c2)cc1`, for which the IC50 is 35.5 µM.

With `O=c1sc2ccccc2n1COc1ccc(Cl)cc1`, the IC50 is 99.3 µM.

Consider `COC(=O)c1ccc2c(c1)C(C)(C)C(/C=C/c1ccc(O)cc1)=[N+]2C`, for which the IC50 was 10.8 µM.

On to `O=c1oc2cc(Cl)ccc2n1CSc1nc2ccccc2s1`, for which the IC50 was 85.6 µM.

Regarding `Oc1ccc(CC2CC3CCN2CC3)cc1O` (stereo not given), the IC50 was 36 µM.

`Oc1ccc(C2=Nn3c(nnc3-c3ccco3)SC2)cc1O`: the IC50 is 21.5 µM.

Turning to `CCOC(=O)SC1=N/C(=C\c2ccc(N(C)C)cc2)C(=O)S1`, the IC50 was 47.4 µM.

With `COc1cc(/C=C2/CCC/C(=C\c3cc(O)c(OC)c(Cl)c3)C2=O)cc(Cl)c1O`, the IC50 was 28.2 µM.

Turning to `CN(C)c1ccc(/C=C/c2cc[n+](C)cc2)cc1`, the IC50 was 17.3 µM.

On to `C=CCN1C(=O)NC2(O)C(=O)c3ccccc3C12O` (stereo not given), for which the half-maximal inhibitory concentration (IC50) is 15.8 µM.

On to `Cc1cc(C)nc(NN2C(=O)/C(=C/c3ccc(O)cc3)SC2=S)n1`, for which the IC50 was 18.8 µM.

`COC(=O)C(N)Cc1ccc(O)c(O)c1` (stereo not given): the IC50 was 10.2 µM.

In the case of `COC(=O)C1=C(O)/C(=C\c2ccc(O)c(OC)c2)N=C1C`, the IC50 was 28.8 µM.

Consider `O/N=C/c1cc(Cl)ccc1OCc1cccc2ccccc12`, for which the IC50 was 42.3 µM.

As to `Clc1ccc(CSCCc2ccncc2)cc1`, the IC50 was 5.76 µM.

Take `O=C(Nc1cc(N2CCOCC2)ncn1)NC1(C(F)(F)F)Oc2ccc(Cl)cc2O1` (stereo not given): the IC50 is 12.7 µM.

As for `CN1/C(=C\C=C2\N=C(c3ccc(F)cc3)OC2=O)C(C)(C)c2ccccc21`, the IC50 was 35.7 µM.

Regarding `CN(C)c1ccc(/C=C/C=C2/SC(=S)N(c3ccccc3)C2=O)cc1`, the IC50 was 9.81 µM.

For the compound `CCOc1ccccc1OCc1nn2c(-c3ccc(C)cc3)nnc2s1`, the IC50 was 55.8 µM.

Regarding `CCn1c(SCC(=O)c2ccc(O)c(O)c2)nnc1-c1ccccc1`, the IC50 was 4.25 µM.

As for `CCC1CCc2c(c3ccccc3[nH]c2=O)O1` (stereo not given), the IC50 was 14.1 µM.

As to `Cc1nn(-c2ccccc2)c(C)c1/C=N/NC(=O)c1cc(-c2ccccc2)n[nH]1`, the IC50 is 7.34 µM.

Turning to `COc1ccc(-n2nnnc2SCC(=O)c2ccc(O)c(O)c2)cc1`, the IC50 is 1.13 µM.

For `O=C(CSc1nc2ccccc2c(=O)[nH]1)c1ccc(O)c(O)c1`, the IC50 was 9.59 µM.

Take `O=C1C2C3C=CC(C3)C2C(=O)N1c1n[nH]c(-c2ccccc2)n1` (stereo not given): the IC50 is 7.63 µM.

The values above are taken from PubChem BioAssay AID690 (Sanford-Burnham Center for Chemical Genomics, 2007).
